For the first assay, the target named is human Kv1.5 potassium channel alpha subunit (Homo sapiens, UniProt P22460). The assay is described as follows: High throughput Kv1.5 planar patch clamp assay (Kv1.5 HT-clamp, IonWorks HT). The class given is cell-based. Further details: Kv1.5 HT-clamp % inhibition: dose or concentration left out as unconfirmed.
human Kv1.5 potassium channel alpha subunit, sequence (P22460 whole entry): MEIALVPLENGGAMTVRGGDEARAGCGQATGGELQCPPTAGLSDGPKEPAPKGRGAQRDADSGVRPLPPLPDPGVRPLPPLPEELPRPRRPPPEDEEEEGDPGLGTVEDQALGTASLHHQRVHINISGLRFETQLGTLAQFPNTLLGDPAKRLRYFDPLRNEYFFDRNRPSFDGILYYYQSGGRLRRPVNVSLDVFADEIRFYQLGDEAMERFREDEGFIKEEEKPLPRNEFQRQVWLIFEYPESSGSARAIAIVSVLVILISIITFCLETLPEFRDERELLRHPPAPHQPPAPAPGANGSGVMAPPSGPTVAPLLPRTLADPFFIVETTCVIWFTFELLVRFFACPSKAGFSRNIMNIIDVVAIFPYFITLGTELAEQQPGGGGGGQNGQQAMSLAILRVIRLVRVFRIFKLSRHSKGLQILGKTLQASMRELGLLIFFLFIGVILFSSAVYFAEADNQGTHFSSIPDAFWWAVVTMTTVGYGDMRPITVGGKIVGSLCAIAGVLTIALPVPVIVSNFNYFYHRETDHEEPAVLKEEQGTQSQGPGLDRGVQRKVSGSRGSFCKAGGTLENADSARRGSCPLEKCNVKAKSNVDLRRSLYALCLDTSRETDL
Conditions: not given
From the text: The high throughput Kv1.5 planar patch clamp assay is a systematic primary screen. It confirms activity and provides a functional measure of the potency of agents that specifically affect Kv1.5 potassium channels. Kiss et al. (Assay and Drug Dev. Tech., 1(1-2):127-135, 2003) and Schroeder et al. (J. of Biomol. Screen., 8(1); 50-64, 2003) describe the use of this instrument for Kv1.5 as well as other voltage gated ion channels.
Chinese hamster ovary cells (CHO) stably expressing the human Kv1.5 potassium channel alpha subunit, cloned from human heart, are grown to 90-100% confluence in Ham's F12 medium supplemented with 10% FBS, 100 U/ml penicillin, 100 μg/ml streptomycin, 1000 μg/ml G-418 sulfate. Cells are subcultured by treatment with Versene, then suspended in phosphate-buffered saline (PBS) and centrifuged The cell pellet is re-suspended in PBS and the resulting suspension placed in the cell reservoir of the IonWorks™ HT instrument.
Electrophysiological recordings are performed with intracellular solution containing (mM): K-gluconate 100, KCl 40, MgCl2 3.2, EGTA 3, N-2-hydroxylethylpiperazine-N^1-2-ethanesulphonic acid (HEPES) 5, adjusted to pH 7.3. Amphotericin (Sigma) is prepared as 30 mg/ml stock solution and diluted to a final working concentration of 0.1 mg/ml in internal buffer solution. The external solution is Dulbecco's PBS (Invitrogen) and contains (mM): CaCl2 0.90, KCl 2.67, K3PO4 1.47, MgCl2 0.50, NaCl 138, Na3PO4 8.10 and has a pH of 7.4. All compounds are prepared as 10 mM stock solutions in DMSO. Compounds are diluted into external buffer, then transferred from the drug plate to the Patchplate during the experiment (final DMSO concentration <0.66% vol.).
Kv1.5 ionic currents are recorded at room temperature. Membrane currents are amplified (RMS ˜10 pA) and sampled at 10 kHz. Leak subtraction was performed in all experiments by applying a 160 ms hyperpolarizing (10 mV) pre-pulses 200 ms before the test pulses to measure leak conductance. The patch clamp stimulus protocol is as follows: • 1. Patchplate wells are loaded with 3.5 μL of external buffer. • 2. Planar micropipette hole resistances (Rp) is determined by applying a 10 mV, 160 ms potential difference across each hole (Hole test). • 3. Cells are pipetted into the Patchplate and form high resistance seals with the 1-2 μm holes at the bottom of each Patchplate well. A seal test scan is performed to determine how many of the Patchplate wells have cells that have formed seals. • 4. In order to gain electrical access to the cells, intracellular solution containing amphotericin is circulated for 4 minutes on the bottom side of the Patchplate. • 5. Pre-compound addition test pulse is applied to each well on the Patchplate. Protocol: Cells are voltage clamped at a membrane holding potential of −80 mV for 15 seconds. This is followed by application of a 5 Hz stimulus train (27×150 ms depolarizations to +40 mV). The membrane potential steps to +40 mV evoke outward (positive) ionic currents. • 6. Compound is added to each well of the Patchplate. Compounds are allowed to incubate for 5 minutes. • 7. Post-compound addition test pulse protocol is applied. Protocol: Cells are voltage clamped at a membrane holding potential of −80 mV for 15 seconds. This is followed by application of a 5 Hz stimulus train (27×150 ms depolarizations to +40 mV).
Data analysis is conducted off-line. Paired comparisons between pre-drug and post-drug additions are used to determine the inhibitory effect of each compound. % inhibition of the peak control current during the 27th depolarization to +40 mV (in the 5 Hz train) is plotted as a function of antagonist concentration. The concentrations of drug required to inhibit current by 50% (IC50) are determined by fitting of the Hill equation to the concentration response data: % of Control=100×(1+([Drug]/IC50)^p)^−1 […]
A general note: Patch clamp records ionic current or voltage across a cell membrane.
Consider `OC(c1cccnc1-c1cc(Cl)cc(Cl)c1)C(c1cccnc1)c1cccnc1F` (single isomer, unassigned) [Example 3 Isomer 1, Enantiomer B, 1-[2-(3,5-dichlorophenyl)pyridin-3-yl]-2-(2-fluoropyridin-3-yl)-2-pyridin-3-ylethanol], for which the “Kv1.5 HT-clamp % inhibition” value came to 72%.

Staying with this assay, now noted: CHO cells stably expressing human Kv1.5; 27th depolarization to +40 mV in 5 Hz train.
As a reminder, the IC50 is the midpoint of a concentration-inhibition curve. As for `OC(c1cccnc1-c1cc(Cl)cc(Cl)c1)C(c1cccnc1)c1cccnc1` (racemic) [Example 1 Racemic, racemic 1-[2-(3,5-dichlorophenyl)pyridin-3-yl]-2,2-dipyridin-3-ylethanol], the IC50 was 116 nM. On to `OC(c1cccnc1-c1cccc(C(F)(F)F)c1)C(c1cccnc1)c1cccnc1` (racemic) [Example 2 Racemic, racemic 2,2-dipyridin-3-yl-1-{2-[3-(trifluoromethyl)-phenyl]pyridin-3-yl}ethanol], for which the IC50 is 266 nM.

Turning to `OC(c1cccnc1-c1ccccc1Cl)C(c1cccnc1)c1cccnc1` (racemic) [Example 4 Racemic, racemic 1-[2-(2-chlorophenyl)pyridin-3-yl]-2,2-dipyridin-3-ylethanol], the midpoint of inhibition, the IC50, lay at 422 nM. With `OC(c1cccnc1-c1cc(Cl)ccc1Cl)C(c1cccnc1)c1cccnc1` (racemic) [Example 5 Racemic, racemic 1-[2-(2,5-dichlorophenyl)pyridin-3-yl]-2,2-dipyridin-3-ylethanol], the IC50 was 77 nM. With `OC(c1cccnc1-c1cccc(Cl)c1Cl)C(c1cccnc1)c1cccnc1` (racemic) [Example 6 Racemic, racemic 1-[2-(2,3-dichlorophenyl)pyridin-3-yl]-2,2-dipyridin-3-ylethanol], the half-maximal inhibitory concentration (IC50) came out at 110 nM.

`OC(c1cccnc1-c1cccc(C(F)(F)F)c1)C(c1cccnc1)c1cccnc1` (single isomer, unassigned) [Example 2 Enantiomer A, 2,2-dipyridin-3-yl-1-{2-[3-(trifluoromethyl)phenyl]pyridin-3-yl}ethanol] yielded an IC50 of 290 nM.

`OC(c1cccnc1-c1cccc(C(F)(F)F)c1)C(c1cccnc1)c1cccnc1` (single isomer, unassigned) [Example 2 Enantiomer B, 2,2-dipyridin-3-yl-1-{2-[3-(trifluoromethyl)phenyl]pyridin-3-yl}ethanol] gave an IC50 of 8220 nM.

Consider `OC(c1cccnc1-c1cc(Cl)cc(Cl)c1)C(c1cccnc1)c1cccnc1F` (single isomer, unassigned) [Example 3 Isomer 1, Enantiomer A, 1-[2-(3,5-dichlorophenyl)pyridin-3-yl]-2-(2-fluoropyridin-3-yl)-2-pyridin-3-ylethanol], for which half-maximal inhibition (IC50) was put at 96 nM. On the same count and under the same terms, the value for `OC(c1cccnc1-c1cc(Cl)cc(Cl)c1)C(c1cccnc1)c1cccnc1F` (single isomer, unassigned) [Example 3 Isomer 2, Enantiomer A, 1-[2-(3,5-dichlorophenyl)pyridin-3-yl]-2-(2-fluoropyridin-3-yl)-2-pyridin-3-ylethanol] was 154 nM; that for `OC(c1cccnc1-c1ccccc1Cl)C(c1cccnc1)c1cccnc1` (single isomer, unassigned) [Example 4 Enantiomer A, 1-[2-(2-chlorophenyl)pyridin-3-yl]-2,2-dipyridin-3-ylethanol] was 171 nM. In turn, `OC(c1cccnc1-c1ccccc1Cl)C(c1cccnc1)c1cccnc1` (single isomer, unassigned) [Example 4 Enantiomer B, 1-[2-(2-chlorophenyl)pyridin-3-yl]-2,2-dipyridin-3-ylethanol] yielded an IC50 of 25000 nM. On the same count and under the same terms, the value for `OC(c1cccnc1-c1cc(Cl)ccc1Cl)C(c1cccnc1)c1cccnc1` (single isomer, unassigned) [Example 5 Enantiomer A, 1-[2-(2,5-dichlorophenyl)pyridin-3-yl]-2,2-dipyridin-3-ylethanol] was 3200 nM.

`OC(c1cccnc1-c1cc(Cl)ccc1Cl)C(c1cccnc1)c1cccnc1` (single isomer, unassigned) [Example 5 Enantiomer B, 1-[2-(2,5-dichlorophenyl)pyridin-3-yl]-2,2-dipyridin-3-ylethanol] came in with an IC50 of 75 nM. As to `OC(c1cccnc1-c1cccc(Cl)c1Cl)C(c1cccnc1)c1cccnc1` (single isomer, unassigned) [Example 6 Enantiomer A, 1-[2-(2,3-dichlorophenyl)pyridin-3-yl]-2,2-dipyridin-3-ylethanol], the concentration for half-maximal inhibition (IC50) turned out to be 5210 nM. On to `OC(c1cccnc1-c1cccc(Cl)c1Cl)C(c1cccnc1)c1cccnc1` (single isomer, unassigned) [Example 6 Enantiomer B, 1-[2-(2,3-dichlorophenyl)pyridin-3-yl]-2,2-dipyridin-3-ylethanol], for which 236 nM corresponded to half-maximal inhibition (IC50).

Consider `O[C@@H](c1cccnc1-c1cc(Cl)cc(Cl)c1)C(c1cccnc1)c1cccnc1` [(R)-1-[2-(3,5-dichlorophenyl)pyridin-3-yl]-2,2-dipyridin-3-ylethanol], for which it took 90 nM to reach half-maximal inhibition (IC50).

`O[C@H](c1cccnc1-c1cc(Cl)cc(Cl)c1)C(c1cccnc1)c1cccnc1` [(S)-1-[2-(3,5-dichlorophenyl)pyridin-3-yl]-2,2-dipyridin-3-ylethanol] displayed an IC50 of 2920 nM.

The assay is the same for the next values; noted with them: at 10000 nM.
As usually defined, the inhibition is the percentage by which the read-out fell short of the control. In turn, `OC(c1cccnc1-c1cc(Cl)cc(Cl)c1)C(c1cccnc1)c1cccnc1F` (single isomer, unassigned) [Example 3 Isomer 2, Enantiomer B, 1-[2-(3,5-dichlorophenyl)pyridin-3-yl]-2-(2-fluoropyridin-3-yl)-2-pyridin-3-ylethanol] came in with an inhibition at 10 µM of 89%.

These data come from patent US7973059B2, “Potassium channel inhibitors” (Merck Sharp & Dohme Corp., priority 2005, dated 2011).
